Assay results: US12522597B2, “Methods and compositions for modulating splicing” (Skyhawk Therapeutics, Inc., priority 2019, dated 2026)

How the values were obtained:
[1] = system: MDR1-MDCK cell monolayers; assay: MDCK-MDR1 permeability assay (BBB penetration potential); type: in vitro ADME; conditions: dog, MDCK-MDR1, 120 min, 5 μM, pH 7.4
Method: (§1) Each determination is performed in duplicate. […] Analytical conditions are outlined below.

[2] = system: MDR1; assay: as above; type: in vitro ADME; conditions: dog; for efflux ratio at 120 min, 5 μM: MDCK-MDR1, pH 7.4, MDCK-MDR1: Efflux; for Papp A→B at 120 min, 5 μM: MDCK-MDR1, pH 7.4, MDCK-MDR1: Papp A-B; for Papp B→A at 120 min, 5 μM: MDCK-MDR1, pH 7.4, MDCK-MDR1: Papp B-A
Method: as §1

[3] = system: mHTT protein; assay: mHTT protein assay (2B7-MW1, Mesoscale Discovery); type: cell-based, human; conditions: GM04724 (CAG 70/20) Huntington's disease patient lymphoblast cells, 48 hours, 2B7-MW1 MSD; read-out: HTT Potency - Protein EC50 mHTT (average)
Method: Compounds are tested on GM04724 (CAG 70/20) Huntington's disease patient lymphoblast cells at doses ranging from 10 μM to 0.6 nM. 4,500 cells/well are seeded in 384 well plates. One plate replica is carried out for parallel viability testing by CellTiter Glo (CTG). Compounds are incubated for 48 hours, mHTT protein levels are assessed by the 2B7-MW1 assay via Mesoscale Discovery (MSD) as previously reported (Macdonald et al., 2014). The antibody pair is comprised of previously characterized monoclonals (2B7 and MW1) interrogating two regions for HTT conformation and biological properties: the N17 domain and the polyQ domain (Baldo et al., 2012; Ko et., 2001). 2B7-MW1 is dependent on subject/animal specific levels of HTT at the time of treatment. 2B7-MW1 is dependent on polyQ expansion (e.g., the higher the expansion the higher the signal) and on mHTT size (e.g., a similar polyQ will give higher signal with smaller HTT size). The viability readout is carried out by CTG according to the manufacturer's instructions.

SMILES	MDCK-MDR1: % Recov A-B [1]	MDCK-MDR1: % Recov B-A [1]	efflux ratio at 120 min, 5 μM [2]	Papp A→B at 120 min, 5 μM [2]	Papp B→A at 120 min, 5 μM [2]	EC50 [3]
Cc1nocc1-c1ccc(-c2ccc(O[C@H]3C[C@@H]4CCC[C@@H](N4)[C@H]3F)nn2)c(O)c1 (single isomer, unassigned) [72-ENT2]	64%	74%	7	4.67 ×10⁻⁶ cm/s	34.9 ×10⁻⁶ cm/s	101 to 500 nM
Oc1cc(-c2ccc3nncn3c2)ccc1-c1ccc(O[C@@H]2C[C@H]3CCC[C@H](N3)[C@@H]2F)nn1 (single isomer, unassigned) [73-ENT1]	94%	85%	92	0.44 ×10⁻⁶ cm/s	40.9 ×10⁻⁶ cm/s	101 to 500 nM
Oc1cc(-c2ccc3nncn3c2)ccc1-c1ccc(O[C@H]2C[C@@H]3CCC[C@@H](N3)[C@H]2F)nn1 (single isomer, unassigned) [73-ENT2]	90%	87%	84	0.49 ×10⁻⁶ cm/s	41.3 ×10⁻⁶ cm/s	101 to 500 nM
Oc1cc(-c2ccccn2)ccc1-c1ccc(O[C@@H]2C[C@H]3CCC[C@H](N3)[C@@H]2F)nn1 (single isomer, unassigned) [77-ENT1]	52%	70%	4	5.64 ×10⁻⁶ cm/s	22.7 ×10⁻⁶ cm/s	101 to 500 nM
Oc1cc(-c2ccccn2)ccc1-c1ccc(O[C@H]2C[C@@H]3CCC[C@@H](N3)[C@H]2F)nn1 (single isomer, unassigned) [77-ENT2]	57%	79%	5	6.32 ×10⁻⁶ cm/s	30.2 ×10⁻⁶ cm/s	101 to 500 nM
Cc1cnc(-c2ccc(-c3ccc(O[C@@H]4C[C@H]5CCC[C@H](N5)[C@@H]4F)nn3)c(O)c2)cn1 (single isomer, unassigned) [78-ENT1]	65%	78%	3	7.17 ×10⁻⁶ cm/s	24.5 ×10⁻⁶ cm/s	101 to 500 nM
Cc1cnc(-c2ccc(-c3ccc(O[C@H]4C[C@@H]5CCC[C@@H](N5)[C@H]4F)nn3)c(O)c2)cn1 (single isomer, unassigned) [78-ENT2]	56%	83%	4	7.09 ×10⁻⁶ cm/s	30 ×10⁻⁶ cm/s	101 to 500 nM
Oc1cc2cnccc2cc1-c1ccc(O[C@@H]2C[C@H]3CCC[C@H](N3)[C@@H]2F)nn1 (single isomer, unassigned) [80-ENT1]	70%	78%	4	7.47 ×10⁻⁶ cm/s	31.4 ×10⁻⁶ cm/s	101 to 500 nM
Oc1cc2cnccc2cc1-c1ccc(O[C@H]2C[C@@H]3CCC[C@@H](N3)[C@H]2F)nn1 (single isomer, unassigned) [80-ENT2]	72%	84%	3	9.2 ×10⁻⁶ cm/s	32.1 ×10⁻⁶ cm/s	501 to 10000 nM
Oc1cc2ccncc2cc1-c1ccc(O[C@@H]2C[C@H]3CCC[C@H](N3)[C@@H]2F)nn1 (single isomer, unassigned) [81-ENT1]	69%	77%	3	7.34 ×10⁻⁶ cm/s	22.8 ×10⁻⁶ cm/s	501 to 10000 nM
Oc1cc2ccncc2cc1-c1ccc(O[C@H]2C[C@@H]3CCC[C@@H](N3)[C@H]2F)nn1 (single isomer, unassigned) [81-ENT2]	69%	81%	3	9.23 ×10⁻⁶ cm/s	26.4 ×10⁻⁶ cm/s	501 to 10000 nM
Oc1cc(-c2ccc3nccn3c2)ccc1-c1ccc(O[C@@H]2C[C@H]3CCC[C@H](N3)[C@@H]2F)nn1 (single isomer, unassigned) [84-ENT1]	44%	72%	11	1.56 ×10⁻⁶ cm/s	17 ×10⁻⁶ cm/s	16 to 50 nM
Oc1cc(-c2ccc3nccn3c2)ccc1-c1ccc(O[C@H]2C[C@@H]3CCC[C@@H](N3)[C@H]2F)nn1 (single isomer, unassigned) [84-ENT2]	43%	73%	14	1.63 ×10⁻⁶ cm/s	22.8 ×10⁻⁶ cm/s	16 to 50 nM
Oc1cc(-c2ccc3cncn3c2)ccc1-c1ccc(O[C@@H]2C[C@H]3CCC[C@H](N3)[C@@H]2F)nn1 (single isomer, unassigned) [85-ENT1]	33%	66%	6	2.12 ×10⁻⁶ cm/s	12.1 ×10⁻⁶ cm/s	101 to 500 nM
Oc1cc(-c2ccc3cncn3c2)ccc1-c1ccc(O[C@H]2C[C@@H]3CCC[C@@H](N3)[C@H]2F)nn1 (single isomer, unassigned) [85-ENT2]	33%	61%	7	2.26 ×10⁻⁶ cm/s	15.3 ×10⁻⁶ cm/s	101 to 500 nM
Oc1cc(-c2ccn3cnnc3c2)ccc1-c1ccc(O[C@@H]2C[C@H]3CCC[C@H](N3)[C@@H]2F)nn1 (single isomer, unassigned) [86-ENT1]	89%	93%	46	0.54 ×10⁻⁶ cm/s	24.7 ×10⁻⁶ cm/s	101 to 500 nM
Oc1cc(-c2ccn3cnnc3c2)ccc1-c1ccc(O[C@H]2C[C@@H]3CCC[C@@H](N3)[C@H]2F)nn1 (single isomer, unassigned) [86-ENT2]	75%	74%	48	0.42 ×10⁻⁶ cm/s	20.3 ×10⁻⁶ cm/s	101 to 500 nM
Oc1cc(-c2ccnnc2)ccc1-c1ccc(O[C@@H]2C[C@H]3CCC[C@H](N3)[C@@H]2F)nn1 (single isomer, unassigned) [87-ENT1]	92%	100%	20	2.75 ×10⁻⁶ cm/s	55.8 ×10⁻⁶ cm/s	101 to 500 nM
Oc1cc(-c2ccnnc2)ccc1-c1ccc(O[C@H]2C[C@@H]3CCC[C@@H](N3)[C@H]2F)nn1 (single isomer, unassigned) [87-ENT2]	105%	108%	14	3.9 ×10⁻⁶ cm/s	56.1 ×10⁻⁶ cm/s	101 to 500 nM
Cc1cc(-c2ccc(-c3ccc(O[C@H]4C[C@@H]5CCC[C@@H](N5)[C@H]4F)nn3)c(O)c2)ccn1 (single isomer, unassigned) [88-ENT2]	51%	71%	4	5.13 ×10⁻⁶ cm/s	21.5 ×10⁻⁶ cm/s	16 to 50 nM
